Measurements: BigSolDB 2.1

CCCCCCCC(=O)NCC(=O)O
Details | solubility (mole fraction)
in 2-butanone, 273.15 K | 0.0123
in 2-butanone, 278.15 K | 0.0153
in 2-butanone, 283.15 K | 0.0199
in 2-butanone, 288.35 K | 0.0266
in 2-butanone, 293.05 K | 0.0304
in 2-butanone, 298.15 K | 0.0379
in 2-butanone, 303.15 K | 0.0457
in 2-butanone, 308.05 K | 0.0561
in 2-butanone, 313.25 K | 0.0667
in 2-butanone, 317.65 K | 0.0806
in 2-butanone, 323.15 K | 0.0951
in 2-pentanone, 273.15 K | 0.00491
in 2-pentanone, 278.15 K | 0.00666
in 2-pentanone, 283.15 K | 0.00984
in 2-pentanone, 288.35 K | 0.0148
in 2-pentanone, 293.05 K | 0.0178
in 2-pentanone, 298.15 K | 0.0244
in 2-pentanone, 303.15 K | 0.032
in 2-pentanone, 308.05 K | 0.0431
in 2-pentanone, 313.25 K | 0.0552
in 2-pentanone, 317.65 K | 0.0723
in 2-pentanone, 323.15 K | 0.0915
in acetone, 273.15 K | 0.0146
in acetone, 278.15 K | 0.0189
in acetone, 283.15 K | 0.0261
in acetone, 288.35 K | 0.0369
in acetone, 293.05 K | 0.0432
in acetone, 298.15 K | 0.0562
in acetone, 303.15 K | 0.0706
in acetone, 308.05 K | 0.0905
in acetone, 313.25 K | 0.111
in acetone, 317.65 K | 0.14
in acetone, 323.15 K | 0.171
in cyclohexanone, 273.15 K | 0.0112
in cyclohexanone, 278.15 K | 0.0149
in cyclohexanone, 283.15 K | 0.0214
in cyclohexanone, 288.35 K | 0.0315
in cyclohexanone, 293.05 K | 0.0378
in cyclohexanone, 298.15 K | 0.0508
in cyclohexanone, 303.15 K | 0.0656
in cyclohexanone, 308.05 K | 0.0866
in cyclohexanone, 313.25 K | 0.11
in cyclohexanone, 317.65 K | 0.141
in cyclohexanone, 323.15 K | 0.177
in cyclopentanone, 273.15 K | 0.0144
in cyclopentanone, 278.15 K | 0.019
in cyclopentanone, 283.15 K | 0.0269
in cyclopentanone, 288.35 K | 0.039
in cyclopentanone, 293.05 K | 0.0464
in cyclopentanone, 298.15 K | 0.0616
in cyclopentanone, 303.15 K | 0.0789
in cyclopentanone, 308.05 K | 0.103
in cyclopentanone, 313.25 K | 0.129
in cyclopentanone, 317.65 K | 0.164
in cyclopentanone, 323.15 K | 0.203
in ethanol, 273.15 K | 0.0116
in ethanol, 278.15 K | 0.0176
in ethanol, 283.15 K | 0.0266
in ethanol, 288.35 K | 0.0401
in ethanol, 293.05 K | 0.0575
in ethanol, 298.15 K | 0.0833
in ethanol, 303.15 K | 0.119
in ethanol, 308.05 K | 0.168
in ethanol, 313.25 K | 0.237
in ethanol, 317.65 K | 0.314
in ethanol, 323.15 K | 0.447
in ethyl acetate, 273.15 K | 0.00218
in ethyl acetate, 278.15 K | 0.00301
in ethyl acetate, 283.15 K | 0.00455
in ethyl acetate, 288.35 K | 0.00705
in ethyl acetate, 293.05 K | 0.00866
in ethyl acetate, 298.15 K | 0.0121
in ethyl acetate, 303.15 K | 0.0162
in ethyl acetate, 308.05 K | 0.0223
in ethyl acetate, 313.25 K | 0.029
in ethyl acetate, 317.65 K | 0.0389
in ethyl acetate, 323.15 K | 0.0502
in ethyl formate, 273.15 K | 0.0016
in ethyl formate, 278.15 K | 0.00226
in ethyl formate, 283.15 K | 0.00348
in ethyl formate, 288.35 K | 0.00555
in ethyl formate, 293.05 K | 0.00688
in ethyl formate, 298.15 K | 0.00981
in ethyl formate, 303.15 K | 0.0133
in ethyl formate, 308.05 K | 0.0186
in ethyl formate, 313.25 K | 0.0247
in ethyl formate, 317.65 K | 0.0336
in ethyl formate, 323.15 K | 0.0439
in isobutanol, 273.15 K | 0.0204
in isobutanol, 278.15 K | 0.0259
in isobutanol, 283.15 K | 0.0327
in isobutanol, 288.35 K | 0.0412
in isobutanol, 293.05 K | 0.0503
in isobutanol, 298.15 K | 0.0622
in isobutanol, 303.15 K | 0.0762
in isobutanol, 308.05 K | 0.0919
in isobutanol, 313.25 K | 0.112
in isobutanol, 317.65 K | 0.131
in isobutanol, 323.15 K | 0.159
in isopentanol, 273.15 K | 0.0276
in isopentanol, 278.15 K | 0.0347
in isopentanol, 283.15 K | 0.0434
in isopentanol, 288.35 K | 0.0543
in isopentanol, 293.05 K | 0.0657
in isopentanol, 298.15 K | 0.0805
in isopentanol, 303.15 K | 0.0978
in isopentanol, 308.05 K | 0.117
in isopentanol, 313.25 K | 0.142
in isopentanol, 317.65 K | 0.166
in isopentanol, 323.15 K | 0.2
in isopropanol, 273.15 K | 0.0153
in isopropanol, 278.15 K | 0.0193
in isopropanol, 283.15 K | 0.0239
in isopropanol, 288.35 K | 0.0298
in isopropanol, 293.05 K | 0.0362
in isopropanol, 298.15 K | 0.0441
in isopropanol, 303.15 K | 0.0533
in isopropanol, 308.05 K | 0.064
in isopropanol, 313.25 K | 0.0769
in isopropanol, 317.65 K | 0.0895
in isopropanol, 323.15 K | 0.108
in methanol, 273.15 K | 0.0347
in methanol, 278.15 K | 0.0478
in methanol, 283.15 K | 0.0653
in methanol, 288.35 K | 0.0891
in methanol, 293.05 K | 0.117
in methanol, 298.15 K | 0.156
in methanol, 303.15 K | 0.204
in methanol, 308.05 K | 0.263
in methanol, 313.25 K | 0.343
in methanol, 317.65 K | 0.425
in methanol, 323.15 K | 0.555
in methyl acetate, 273.15 K | 0.00203
in methyl acetate, 278.15 K | 0.00288
in methyl acetate, 283.15 K | 0.00448
in methyl acetate, 288.35 K | 0.00718
in methyl acetate, 293.05 K | 0.00895
in methyl acetate, 298.15 K | 0.0128
in methyl acetate, 303.15 K | 0.0174
in methyl acetate, 308.05 K | 0.0245
in methyl acetate, 313.25 K | 0.0327
in methyl acetate, 317.65 K | 0.0444
in methyl acetate, 323.15 K | 0.0586
in n-butanol, 273.15 K | 0.0228
in n-butanol, 278.15 K | 0.0313
in n-butanol, 283.15 K | 0.0425
in n-butanol, 288.35 K | 0.0577
in n-butanol, 293.05 K | 0.0755
in n-butanol, 298.15 K | 0.0993
in n-butanol, 303.15 K | 0.13
in n-butanol, 308.05 K | 0.167
in n-butanol, 313.25 K | 0.217
in n-butanol, 317.65 K | 0.268
in n-butanol, 323.15 K | 0.347
in n-pentanol, 273.15 K | 0.0226
in n-pentanol, 278.15 K | 0.0308
in n-pentanol, 283.15 K | 0.0413
in n-pentanol, 288.35 K | 0.0559
in n-pentanol, 293.05 K | 0.0724
in n-pentanol, 298.15 K | 0.095
in n-pentanol, 303.15 K | 0.123
in n-pentanol, 308.05 K | 0.157
in n-pentanol, 313.25 K | 0.202
in n-pentanol, 317.65 K | 0.249
in n-pentanol, 323.15 K | 0.32
in n-propanol, 273.15 K | 0.0174
in n-propanol, 278.15 K | 0.0254
in n-propanol, 283.15 K | 0.0363
in n-propanol, 288.35 K | 0.0522
in n-propanol, 293.05 K | 0.0715
in n-propanol, 298.15 K | 0.1
in n-propanol, 303.15 K | 0.137
in n-propanol, 308.05 K | 0.185
in n-propanol, 313.25 K | 0.251
in n-propanol, 317.65 K | 0.323
in n-propanol, 323.15 K | 0.439
